Source: PubChem BioAssay (NCI)
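Values below derive from 48-hour exposures of cells grown in 96-well plates, with endpoints linearly interpolated between the two concentrations bracketing the appropriate inhibition level. The concentration for 50% growth inhibition is given as GI50. TGI: concentration producing complete growth inhibition.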 Where a SMILES comes first, the peptide text is derived from it. The star is where a group is joined. Boc = CC(C)(C)OC(=O)*

What was measured:
Assay in all cases: NCI-60 cell line screen, 48 h
[1] = system: U251 CNS
[2] = system: DU-145 prostate
[3] = system: HOP-92 NSCLC
[4] = system: HCT-15 colon
[5] = system: SNB-19 CNS
[6] = system: KM12 colon
[7] = system: HS 578T breast
[8] = system: MCF7 breast
[9] = system: IGROV1 ovarian
[10] = system: MALME-3M melanoma

| Compound | TGI [1] [µM] | TGI [2] [µM] | TGI [3] [µM] | TGI [4] [µM] | TGI [5] [µM] | TGI [6] [µM] | TGI [7] [µM] | TGI [8] [µM] | TGI [9] [µM] | TGI [10] [µM] | GI50 [1] [µM] | GI50 [2] [µM] | GI50 [3] [µM] | GI50 [4] [µM] | GI50 [5] [µM] | GI50 [6] [µM] | GI50 [7] [µM] | GI50 [8] [µM] | GI50 [9] [µM] | GI50 [10] [µM] |
| --- | --- | --- | --- | --- | --- | --- | --- | --- | --- | --- | --- | --- | --- | --- | --- | --- | --- | --- | --- | --- |
| CC(=O)N/N=C1\NC(=O)C[C@H]2[C@@H]3CC=C4C[C@@H](OC(C)=O)CC[C@]4(C)[C@H]3CC[C@]12C | 28.7 | > 100 | 31.9 | > 100 | 39.9 | > 100 | 88.6 | > 100 | > 100 | > 100 |  |  |  |  |  |  |  |  |  |  |
| C=CC[C@]12C[C@@H](C(=O)OC)N(C(=O)OC)[C@H]1N(S(=O)(=O)c1ccccc1)c1ccccc12 | > 100 | > 100 | > 100 | > 100 | > 100 | > 100 | > 100 | > 100 | > 100 | > 100 |  |  |  |  |  |  |  |  |  |  |
| Clc1ccc(-c2nn3c(-c4ccncc4)nnc3s2)cc1 | 75 | > 100 | > 100 | 90.7 | > 100 | > 100 | > 100 | > 100 | > 100 | > 100 |  |  |  |  |  |  |  |  |  |  |
| Nc1c(-c2cccc3ccccc23)c2ccc([N+](=O)[O-])cc2c(=O)n1-c1nc2ccccc2s1 | > 50.5 | > 100 | > 55.5 | > 48 | > 49.4 | 24.4 | 20.9 | 7.84 | > 100 | 13.4 |  |  |  |  |  |  |  |  |  |  |
| COc1cc(C2SCC(=O)N2c2ccc(NC(=O)c3ccc(N4C(=O)CSC4c4cc(OC)c(OC)c(OC)c4)cc3)cc2)cc(OC)c1OC (stereo not given) | > 100 | > 100 | 79.1 | > 100 | > 100 | > 100 | > 100 | > 100 | > 100 | > 100 |  |  |  |  |  |  |  |  |  |  |
| CC(C)(C)OC(=O)NCC(=O)NCC(=O)NCC(=O)NCC(=O)O (Boc-GGGG-OH) | > 100 | > 100 | > 100 | > 100 | > 100 | > 100 | > 100 | > 100 | > 100 | > 100 |  |  |  |  |  |  |  |  |  |  |
| COc1ccc(C2(CC(C)O)SCCCS2)cc1 (stereo not given) | > 100 | > 100 | > 100 | > 100 | > 100 | > 100 | > 100 | > 100 | > 100 | > 100 |  |  |  |  |  |  |  |  |  |  |
| C=CCO/N=C/c1cc(NC(=S)c2ccoc2C)ccc1Cl | 60.6 | 27.8 | 42.3 | 23.8 | 21.2 | 25.5 | 64.4 | 23.3 | 32.2 | 31.3 |  |  |  |  |  |  |  |  |  |  |
| CCN(CC)CCOc1ccc(N2C(=O)c3cc(OC)c(OC)cc3C2=O)cc1 | > 100 | > 100 | > 100 | > 100 | > 100 | > 100 | > 100 | > 100 | > 100 | > 100 |  |  |  |  |  |  |  |  |  |  |
| COc1cc(C2CC(C)(Nc3ccccc3)Oc3cc4c(cc32)OCO4)cc(OC)c1OC (stereo not given) | 17.2 | 6.13 | > 100 | > 100 | > 100 | > 37.5 | > 100 | > 51.5 | > 59.8 | > 100 |  |  |  |  |  |  |  |  |  |  |
| COc1ccc2cc3c4cc5c(cc4cc[n+]3cc2c1OC)OCO5 | 15.3 | > 100 | > 90.4 | > 100 | 39.6 | 12.2 | 31.3 | > 96.2 | > 32.7 | 15.1 |  |  |  |  |  |  |  |  |  |  |
| O=c1c2cc3c(cc2[nH]c2ncccc12)OCO3 | > 10 | > 10 | > 10 | > 10 | > 10 | > 10 | > 10 | > 10 | > 10 | > 10 |  |  |  |  |  |  |  |  |  |  |
| Brc1cccc(Nc2nc(-c3cccs3)nc3ccc(Br)cc23)c1 | > 100 | > 100 | > 100 | > 100 | 98.7 | 46.3 | > 100 | > 100 | > 100 | 65.2 |  |  |  |  |  |  |  |  |  |  |
| CC1CC[C@@]2(OC1)OC1C[C@H]3[C@@H]4CC[C@H]5CC(OC6OC(CO)C(OC7OC(CO)C(O)C(O)C7OC7OC(CO)C(O)C(O)C7O)C(O)C6O)CCC5(C)[C@H]4CCC3(C)C1[C@@H]2C (stereo not given in full) | 2.74 | 1.81 | 11.8 | 20.3 | 10.3 | 10.4 | 7.44 | 2.26 | 2.15 | 12.5 |  |  |  |  |  |  |  |  |  |  |
| COc1cc2c(cc1-c1c(C)noc1C)cc(C)c(=O)n2Cc1ccccn1 | > 100 | > 100 | 25.3 | > 100 | > 100 | > 100 | 13.3 | > 100 | > 100 | 7.45 | 4.43 | 12.6 | 0.473 | 0.694 | 1.86 | 7.77 | 0.318 | 0.333 | 1.2 | 1.14 |
